Assay [1] concerns yellow fever mosquitoes, Aedes aegypti. The experiment in a line: Static-air repellency chamber, spatial and contact repellency, adult female yellow fever mosquitoes. The format is in vivo. Particulars: for long term repellency (in excess of two hours): Table 20, up to 360 min; for Average Percentage Repellency Over Time: application rate 78.6 μg/cm^2. Here is the method: Test Equipment. In this testing, a static air repellency chamber was used. The apparatus consisted of a 9×60-cm section of glass tubing with a 2-cm hole drilled at the midpoint along the length for central introduction of the insects. All of the testing was conducted in an environmental chamber at ambient temperatures.
Test Methods. The data for spatial repellency was collected at 15 minutes after the introduction of female yellow fever mosquitoes into a static air repellency chamber. Data for the contact repellency was collected after three hours. The concentrations used in the tests are 1% solution (1 ml of it on a 9-cm diameter filter paper). One (1) ml of a 1% (wt/vol) solution of repellent substance containing hexane as a carrier was pipetted onto a 9-cm diameter filter paper results in a concentration of 157 μg/cm^2. The solution contained the desired mass of compound to be tested added to the desired volume of hexane, e.g., for a 1% solution of catnip essential oil, […] was added to 100 ml of hexane.
One milliliter of the solution was applied to one half of a 9-cm diameter round filter paper with an area of 63.6 cm^2 and then allowed to dry before testing. […] Treated filter papers were placed inside the lids of 9-cm glass petri dishes, and placed over the ends of the glass tube. The position of the treated side, to the right or to the left, was selected by using a random-number table. Approximately fifteen unmated adult female mosquitoes were anaesthetized with CO2 and then introduced to the 9×60-cm glass cylinder through the centered 2-cm hole. Timing began 2 minutes after mosquito introduction, and mosquito distribution inside the static-air choice-test apparatus was observed over a 15-minute period for each treatment to determine spatial repellency. Basically the number of mosquitoes in the non-treated half were considered to be repelled and were counted. Percent repellency was considered to be: (Number of Individuals on Untreated Half−Number of Individuals on Treated Half)/15)×100. Contact repellency was defined in this assay as 100% avoidance of the treated filter paper-after three hours. The experimental design was a completely randomized design using six replications of each treatment.
All test methods were the same as described in Example 7, except spatial repellency over a longer period.
Test Methods. […] Also only three replications were used instead of six.

For assay [2], the system named is antennectomized male German cockroaches. The experiment in a line: Choice test arena behavioral assay of antennectomized male cockroaches. It counts as in vivo, Blattella germanica. Particulars: Annectomized male cockroaches; 1600 μg/cm^2. On the procedure: Testing Procedure. Male cockroaches were antennectomized by using a razor blade to remove the antennae as close to the head as possible. The cockroaches were allowed to recover from the procedure for 24 hours before being exposed to the test compounds in the bioassay described in Example 1. Results.

Another assay concerns female German cockroach. In words: Choice test arena repellency, female German cockroach. The format is in vivo, Blattella germanica. Set-up: key: seconds spent on the side during a 300-second period. The settings on record: 10% by volume (1600 μg/cm^2) vs. acetone. On the procedure:
One Whatman 125-mm round filter paper was cut in half. One side was treated with one (1) ml of the test compound and the other side was treated with one (1) ml of solvent. The papers were allowed to dry in a fume hood for approximately two (2) minutes before being placed in a 150-mm Petri dish arena. The relative position of the treated side (i.e., to the right or left) of the dish was randomized using a random number table. […] The hole was stopped using a small piece of tape to prevent the insect from escaping. One adult male German cockroach (Blattella germanica) was selected from the colony and dropped into the pre-formed hole in the Petri dish lid. Immediately after introduction of the cockroach, the number of seconds the cockroach spent on the treated or untreated side during a 300-second (five (5) minute) period was recorded with two different (2) stopwatches. Ten (10) replications were performed for each test compound.
Testing methods and materials. In this experiment, female German cockroaches were tested in the same manner described in Example 1 against the steam distillates of catnip and the Osage orange. Testing using the commercial repellent, DEET, was also performed for comparison. It is known that male cockroaches are generally more sensitive to repellents, such as DEET, than female cockroaches.

Assay [3] relates to German cockroach, Blattella germanica. In words: Choice-test arena bioassay (contact irritancy), German cockroach, Example 6. The format is in vivo. The settings on record: 300-second period. Here is the method: (§1) A choice-test arena was used to assess irritancy of test solutions to two common household insect pests, the German cockroach (Blattella germanica) and the house fly (Musca domestica). Catnip essential oil obtained by steam distillation of catnip obtained from the same source as described in the above examples, and the two major components of its essential oil, Z,E-nepetalactone and E,Z-nepetalactone (isolated from the essential oil by preparative TLC), were evaluated for behavioral effects of contact irritancy to the German cockroach. The TLC was performed as described in McElvain, S. M. et al., J. Am. Chem. Soc., 1941, 63, 1558-1563. Catnip essential oil and its major constituent Z,E-nepetalactone were tested against the house fly. N,N-diethyl-m-toluamide (DEET) (Aldrich, St. Louis, Mo.) served as a positive control for the choice-test arena assay and as a point of comparison for measuring insect behavioral effects that result from current commercial insect repellents. Test solutions ranging from 10% to 0.1% (vol/vol) active ingredient (a.i.) were made up in acetone and then delivered on to a filter paper for solvent evaporation. […] Choice-test are for German cockroaches and house flies were constructed from plastic Petri dishes. One-half of a 12.5-cm dia. filter paper was treated with 1 ml test solution, and the other was treated with 1 ml of only solvent (control). Both halves of the filter paper were placed in the choice-test arena. Position of the treated filter paper was randomized using a random-number table.
(§2) Individual German cockroaches or house flies were placed in each choice-test arena through a centered hole in the lid of the Petri dish and evaluated for a 300-second period. The amount of time the insect spent on the treated and untreated filter papers were recorded and used to calculate a percentage repellency value: Percentage Repellency=((Time on Untreated-Time on Treated)/300)×100
(§3) Ten replicates of each treatment solution were tested for both German cockroaches and house flies. Details of this assay design and some results have previously been described.

Assay [4] deals with house fly, Musca domestica. In words: Choice-test arena bioassay (contact irritancy), house fly. It counts as in vivo. Particulars: for Percentage Repellency: 300-second period. Here is the method:
as §1, §2, §3

Molecules are shown by their SMILES. Where “and” joins values, the source holds several entries; their conditions need not be identical. Equal values may be shown once.

Regarding `C=CC1(C)CCC(C(C)(C)O)CC1C(=C)C` (stereo not drawn) [Elemol], the “% repellency” value in assay [1] (78.6 μg/cm^2 (equivalent to a 0.5% solution), determined at 15 minutes, three replications) was determined as 38.9%. Besides, in assay [1] (Conc 1% (157 μg/cm^2), average of mosquito contact repellency over 3-hour time period), the “Avoidance Frequency” value is 97. For the same molecule, the “Repellency (%) (15-minute spatial repellency)” value in assay [1] (Conc 1% (157 μg/cm^2), determined at 15 minutes, six replications) came out at 63.6%. In assay [1], the “long term repellency (in excess of two hours)” value is on record as “long term repellency”. Besides, the “Average Percentage Repellency Over Time” value is on record as 52% in assay [1] (60 min), 43% in assay [1] (120 min), 35% in assay [1] (360 min) and 56% in assay [1] (Initial). In assay [1] (other data from our lab, 6-hour time period), the “spatial and contact repellency over a 6-hour time period” value was “good spatial and very good contact repellents”.

As for `CCN(CC)C(=O)c1cccc(C)c1` [DEET, N,N-diethyl-3-methylbenzamide, reference compound], the “Mean seconds on treated side ± SEM” value in assay [2] is 148 ± 17.1 s. Also, the “Mean seconds on untreated side” value in assay [2] is 154 ± 17.2 s. Moreover, in the assay with female German cockroach, the “treated, mean of 10 trials” value stood at 144. Also, the “untreated, mean of 10 trials” value in the assay with female German cockroach turned out to be 156.9. For the same molecule, the “treated (time on treated side), single trials 1-10” value in the assay with female German cockroach (300-second test as Example 1, in s (unit assumed)) was 99 and 166 and 116 and 181 and 157 and 146 and 137 and 150. In addition, the “Percentage Repellency ± SEM” value is given as 15.5 ± 5.4a % in assay [3] (application rate 80 μg/cm^2), 20.4 ± 9.2a % in assay [3] (application rate 160 μg/cm^2), 25.8 ± 9.5a % in assay [3] (application rate 800 μg/cm^2) and 58.3 ± 10.5b % in assay [3] (application rate 1.60 mg/cm^2). Moreover, the “higher percentage repellency values (text summary of Table 15)” value in assay [4] (across application rates tested) is on record as 39%. Moreover, the “Percentage Repellency” value stood at 38.7% in assay [4] (application rate 80 μg/cm^2), 19.3% in assay [4] (application rate 160 μg/cm^2) and 20.7% in assay [4] (application rate 800 μg/cm^2). The “long term repellency (in excess of two hours)” value in assay [1] is recorded as “long term repellency”. The “Average Percentage Repellency Over Time” value in assay [1] (60 min) was 64%; in assay [1] (120 min) it was 47%; in assay [1] (360 min), 49%; in assay [1] (Initial) it was 52%.

These data come from patent US7939091B2, “Biorational repellents obtained from terpenoids for use against arthropods” (Iowa State University Research Foundation, Inc., priority 1999, dated 2011).
